Measurements taken from PMC12044326 (Clinical Pharmacology in Drug Development, 2025).
Like-named read-outs stand apart in the source and are kept apart here.

What was measured:
P‐glycoprotein (P‐gp) = target: T1, P‐glycoprotein (P‐gp) (Homo sapiens, UniProt P08183); assay type: in vitro ADME
T1 construct: Caco-2 cells were obtained from American Type Culture Collection; host or cells: Caco-2 cell monolayers
Experimental: (§1) Prior to the experiments,
(§2) The cells were cultured at […]
(§3) measuring the trans-epithelial electrical resistance (TEER) value. The TEER values of cell […]
(§4) The volumes of the replaced […]
(§5) shaker at 37°C until use.
(§6) Apical to Basal Transport (A to B).
(§7) (soticlestat or quinidine) were added.
(§8) After incubation for 1 hour, 100 μL […]
(§9) radioactivity using an LSC. […]
(§10) collected and measured for the radioactivity using an LSC.
(§11) Basal to Apical Transport (B to A).
(§12) (soticlestat or quinidine) were added. […] Then […]
(§13) cells were incubated at 37°C.
(§14) HBSS solution were added to the apical side.

P‐gp = target: T2, P‐gp (Homo sapiens, UniProt P08183); assay type: in vitro ADME
T2 construct: Caco-2 cells were obtained from American Type Culture Collection; host or cells: Caco-2 cell monolayers
Experimental: as §1, §2, §3, §4, §5, §6, §7, §8, §9, §10, §11, §12, §13, §14

in vitro = in vitro ADME
From the text: […]. […] […]. […] […]

[1] = set-up: method as in earlier work; conditions: ref 7 of supplement, cited from earlier work
CYP3A4 = test: PBPK elimination inputs (retrograde model, fm); set-up: species or system human; conditions: PBPK input
OATP1B1 = target: T3, OATP1B1 (Homo sapiens, UniProt Q9Y6L6)
T3 sequence (Q9Y6L6 1-691): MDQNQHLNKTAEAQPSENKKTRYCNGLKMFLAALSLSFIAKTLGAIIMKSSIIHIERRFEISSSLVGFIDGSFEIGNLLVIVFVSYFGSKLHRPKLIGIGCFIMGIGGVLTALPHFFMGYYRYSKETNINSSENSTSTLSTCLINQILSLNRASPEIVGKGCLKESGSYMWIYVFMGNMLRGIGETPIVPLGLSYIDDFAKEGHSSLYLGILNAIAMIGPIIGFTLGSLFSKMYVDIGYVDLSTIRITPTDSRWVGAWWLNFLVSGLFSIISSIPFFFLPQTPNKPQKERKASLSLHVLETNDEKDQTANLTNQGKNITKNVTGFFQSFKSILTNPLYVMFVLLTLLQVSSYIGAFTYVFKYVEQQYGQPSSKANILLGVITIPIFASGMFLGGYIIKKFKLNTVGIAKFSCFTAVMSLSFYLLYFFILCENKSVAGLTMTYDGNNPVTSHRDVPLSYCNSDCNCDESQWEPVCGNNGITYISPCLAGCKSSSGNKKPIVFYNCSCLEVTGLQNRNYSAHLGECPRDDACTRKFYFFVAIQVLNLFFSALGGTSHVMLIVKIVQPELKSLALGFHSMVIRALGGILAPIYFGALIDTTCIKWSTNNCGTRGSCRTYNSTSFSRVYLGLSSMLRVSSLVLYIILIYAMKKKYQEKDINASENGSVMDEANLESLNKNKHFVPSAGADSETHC

UGT2B4 [2] = target: T4, UGT2B4 (Homo sapiens, UniProt P06133); set-up: with alamethicin-pretreated HLMs (0.5 mg/mL); tissue Sekisui-XenoTech; host or cells: pooled human liver microsomes (200 donors); conditions: predicted by combining in vitro phenotyping and human ADME data; cited from earlier work
T4 sequence (P06133 24-528): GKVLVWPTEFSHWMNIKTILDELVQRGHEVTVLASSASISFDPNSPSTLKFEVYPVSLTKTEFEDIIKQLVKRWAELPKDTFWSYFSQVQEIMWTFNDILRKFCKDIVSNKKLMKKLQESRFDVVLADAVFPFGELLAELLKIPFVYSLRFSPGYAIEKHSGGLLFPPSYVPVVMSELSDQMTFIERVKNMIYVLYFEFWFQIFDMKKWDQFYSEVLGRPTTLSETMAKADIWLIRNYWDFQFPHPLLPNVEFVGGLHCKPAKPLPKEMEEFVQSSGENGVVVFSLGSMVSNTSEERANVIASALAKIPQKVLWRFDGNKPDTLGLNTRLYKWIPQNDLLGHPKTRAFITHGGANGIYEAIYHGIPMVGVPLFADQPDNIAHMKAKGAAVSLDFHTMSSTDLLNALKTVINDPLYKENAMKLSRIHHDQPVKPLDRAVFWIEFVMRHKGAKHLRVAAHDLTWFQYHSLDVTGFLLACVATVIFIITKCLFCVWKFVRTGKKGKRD

UGT1A9 = target: T5, UGT1A9 (Homo sapiens, UniProt O60656); test: PBPK elimination inputs (retrograde model, fm, KM sensitivity); conditions: PBPK input
T5 sequence (O60656 26-530): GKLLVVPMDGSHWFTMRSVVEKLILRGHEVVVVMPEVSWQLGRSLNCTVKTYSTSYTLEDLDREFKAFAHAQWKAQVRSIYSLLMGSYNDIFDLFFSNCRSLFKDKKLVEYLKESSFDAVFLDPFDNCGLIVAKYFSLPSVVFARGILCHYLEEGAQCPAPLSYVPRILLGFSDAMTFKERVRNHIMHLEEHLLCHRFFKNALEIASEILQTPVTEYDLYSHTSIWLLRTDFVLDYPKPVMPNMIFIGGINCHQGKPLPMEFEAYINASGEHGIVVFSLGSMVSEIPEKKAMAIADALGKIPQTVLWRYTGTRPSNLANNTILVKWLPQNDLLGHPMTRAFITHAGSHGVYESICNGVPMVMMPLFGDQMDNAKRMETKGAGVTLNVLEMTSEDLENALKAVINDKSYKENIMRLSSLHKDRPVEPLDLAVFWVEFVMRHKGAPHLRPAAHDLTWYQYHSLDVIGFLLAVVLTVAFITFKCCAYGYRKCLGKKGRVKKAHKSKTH

UGT2B4 [3] = target: T4, UGT2B4; test: as above; conditions: PBPK input
[4] = 100 mg QD, Day 1, geometric mean
[5] = 100 mg QD, Day 14, geometric mean
[6] = 300 mg QD, Day 1, geometric mean
[7] = 300 mg QD, Day 14, geometric mean
[8] = 400 mg QD, Day 1, geometric mean
[9] = 400 mg QD, Day 14, geometric mean

T1 sequence (P08183 whole entry): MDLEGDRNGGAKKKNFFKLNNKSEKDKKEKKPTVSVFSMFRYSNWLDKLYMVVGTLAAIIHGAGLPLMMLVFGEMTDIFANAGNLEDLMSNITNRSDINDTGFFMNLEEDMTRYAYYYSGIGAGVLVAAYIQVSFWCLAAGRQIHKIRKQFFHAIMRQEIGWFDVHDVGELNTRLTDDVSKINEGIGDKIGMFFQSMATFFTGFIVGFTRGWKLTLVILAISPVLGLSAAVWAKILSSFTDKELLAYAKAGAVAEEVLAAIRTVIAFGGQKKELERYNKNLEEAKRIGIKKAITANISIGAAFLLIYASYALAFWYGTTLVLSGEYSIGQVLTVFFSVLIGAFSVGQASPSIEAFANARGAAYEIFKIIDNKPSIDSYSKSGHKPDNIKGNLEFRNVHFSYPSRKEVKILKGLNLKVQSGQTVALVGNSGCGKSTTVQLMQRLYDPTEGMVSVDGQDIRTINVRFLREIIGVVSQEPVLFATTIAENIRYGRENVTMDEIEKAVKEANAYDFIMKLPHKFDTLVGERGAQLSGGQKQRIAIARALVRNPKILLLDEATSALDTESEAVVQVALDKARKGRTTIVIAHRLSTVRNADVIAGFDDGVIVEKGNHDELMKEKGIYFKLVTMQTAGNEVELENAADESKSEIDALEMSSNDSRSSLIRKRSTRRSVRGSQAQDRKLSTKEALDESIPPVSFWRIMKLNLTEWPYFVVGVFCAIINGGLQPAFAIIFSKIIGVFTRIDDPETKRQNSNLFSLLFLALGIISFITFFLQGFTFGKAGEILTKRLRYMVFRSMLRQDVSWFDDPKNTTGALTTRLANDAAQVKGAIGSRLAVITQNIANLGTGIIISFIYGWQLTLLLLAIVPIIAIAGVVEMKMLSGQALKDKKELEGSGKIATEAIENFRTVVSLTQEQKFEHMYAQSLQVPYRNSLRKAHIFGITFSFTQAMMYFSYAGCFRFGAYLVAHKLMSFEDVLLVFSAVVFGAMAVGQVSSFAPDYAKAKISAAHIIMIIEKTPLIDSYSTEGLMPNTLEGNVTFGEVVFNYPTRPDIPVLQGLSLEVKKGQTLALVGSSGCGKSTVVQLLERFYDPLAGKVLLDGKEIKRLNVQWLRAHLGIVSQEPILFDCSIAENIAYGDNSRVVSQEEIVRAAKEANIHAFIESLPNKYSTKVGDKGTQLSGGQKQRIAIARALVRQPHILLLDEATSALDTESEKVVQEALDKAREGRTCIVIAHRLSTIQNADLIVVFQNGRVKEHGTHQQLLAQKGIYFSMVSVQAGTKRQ
T2 sequence (P08183 whole entry): as above

For O=C(c1cccnc1-c1ccncc1)N1CCC(O)(Cc2ccccc2)CC1 [Soticlestat], the IC50 (P‐glycoprotein (P‐gp)) was 81.1 µM, the Ki (P‐glycoprotein (P‐gp)) was 80 µM and the “substrate for P‐gp” value (P‐gp) was “not a substrate”. For the same compound, the Main binding protein (in vitro) was “AAG”, the fraction unbound (in vitro) was 0.066 and the AUC0-24 observed [1, 4] was 422 ng·h/mL. The Cmax observed [1, 4] was 419 ng/mL, the tmax observed ([1]; 100 mg QD, Day 1, median) was 25.2 min and the AUCtau observed [1, 5] was 443 ng·h/mL. The Cmax observed [1, 5] was 469 ng/mL, the tmax observed ([1]; 100 mg QD, Day 14, median) was 19.8 min and the AUC0-24 observed [1, 6] was 1798 ng·h/mL. The Cmax observed [1, 6] was 1729 ng/mL, the tmax observed ([1]; 300 mg QD, Day 1, median) was 25.2 min and the AUCtau observed [1, 7] was 2497 ng·h/mL. For the same compound, the Cmax observed [1, 7] was 2866 ng/mL, the tmax observed ([1]; 300 mg QD, Day 14, median) was 19.8 min and the AUC0-24 observed [1, 8] was 2283 ng·h/mL. For the same compound, the Cmax observed [1, 8] was 2374 ng/mL, the AUCtau observed [1, 9] was 2605 ng·h/mL and the Cmax observed [1, 9] was 2709 ng/mL. For the same compound, the fmCYP3A (CYP3A4) was 0.1, the “inhibition of OATP1B1” value (OATP1B1) was “did not demonstrate clinically relevant inhibition” and the “fm by UGT2B4” value (UGT2B4 [2]) was 81.2%. The fmUGT1A9 (UGT1A9) was 0.1 and the fmUGT2B4 (UGT2B4 [3]) was 0.8.
